{
  "source": "patent US7211246B2",
  "about": "“Compositions comprising oestrone-3-0-sulphamate and trail (TNF-related apoptosis inducing ligand)” (Sterix Limited, priority 2001, dated 2007)",
  "molecules": {"B1": {"name": "TRAIL: Tumour necrosis factor (TNF) related apoptosis inducing ligand; recombinant human TRAIL used in the tests (protein, UniProt P50591 1-281, looked up)", "Tumor necrosis factor ligand …": "MAMMEVQGGPSLGQTCVLIVIFTVLLQSLCVAVTYVYFTNELKQMQDKYSKSGIACFLKEDDSYWDPNDEESMNSPCWQVKWQLRQLVRKMILRTSEETISTVQEKQQNISPLVRERGPQRVAAHITGTRGRSNTLSSPNSKNEKALGRKINSWESSRSGHSFLSNLHLRNGELVIHEKGFYYIYSQTYFRFQEEIKENTKNDKQMVQYIYKYTSYPDPILLMKSARNSCWSKDAEYGLYSIYQGGIFELKENDRIFVSVTNEHLIDMDHEASFFGAFLVG"}},
  "key": {"[1]": {"test_system": "MCF-7 cells", "assay": "Cell Titre 96 Aqueous One Solution cell proliferation assay, MCF-7 cells", "assay_type": "cell-based", "conditions": "24 hrs", "method": "(§1) FIGS. 1A to 1C show effects of 2-MeOEMATE and 2-EtEMATE on TRAIL induced apoptosis in CAL51 and MCF-7 cells. Cell proliferation assays in which CAL51 cells or MCF7 cells were plated at a density of 5,000 in 96 well plates and treated with 0, 0.05, 0.5 or 5 μM MeoEMATE or 2-EtEMATE in the presence of 0, 50 or 250 ng/ml recombinant human TRAIL. Results are the mean of triplicates+/−S.D. and are expressed as a percentage of results for untreated cells.\n(§2) Cell proliferation was measured using the Cell Titre 96 Aqueous One Solution Cell proliferation assay (Promega). This is a colorimetric method which determines cell viability and can therefore be used to measure the ability of drugs to cause cell death. The assay is performed by adding the cell proliferation reagent directly to the cells. Metabolically active cells convert the reagent to a coloured formazan product and the absorbance at 490 nm is measured 1–4 hrs after incubation at 37° C.\n(§3) For the TRAIL co-operation experiments, CAL-51 of MCF-7 cells were plated at 5,000 cells per well in 96 well plates. CAL-51 cells were treated with 0, 0.05, 0.5 or 5 μM 2-MeOEMATE or 2-EtEMATE in the presence of 0, 50 or 250 ng/ml recombinant human TRAIL. MCF7 cells were treated with 5 μM 2-MeOEMATE or 2-EtEMATE in the presence or absence of 250 ng/ml recombinant human TRAIL. Cell proliferation was measured 2 days (CAL-51) or 1 day (MCF-7) after addition of drugs. Tests were performed in triplicate and data are means of triplicate results+/−S.D. and are expressed as a percentage of results obtained for untreated cells. Experiments on CAL-51 cells were performed 4 times for each compound and once for each compound on MCF-7 cells."}, "[2]": {"test_system": "DR4 mRNA", "assay": "RNAse protection assay, DR4 mRNA levels in Cal51 cells", "assay_type": "cell-based, Human", "conditions": "0.5 μM, over 48 hours", "method": "(§4) RNAse protection assay showing DR5, DR4 and GAPDH mRNA levels at 0, 8, 16, 24 and 48 hours following treatment with 0.5 μM 2-MeOEMATE and 2-EtEMATE in Cal51 cells.\n(§5) We investigated if the co-operation observed between TRAIL and 2-MeOEMATE or 2-EtEMATE to induce cell death in CAL51 cells was due to upregulation of DR4 and/or DR5 receptors by 2-MeOEMATE and 2-EtEMATE. We used RNAse protection assays to examine the levels of mRNAs for DR4 and DR5 following treatment of CAL51 cells with 2-MeOEMATE and 2-EtEMATE over 48 hours.\n(§6) This experiment was performed once. A radiolabeled RNA multi-probe was synthesised (Pharmingen RiboQuant Human Apoptosis Multiprobe template set hAPO-3c) using [α^32P] UTP and […] RNA polymerase. This multi-probe template set allows simultaneous generation of several probes for detection and measurement of apoptosis related genes. […]\n(§7) Total RNA was prepared using Trizol reagent (Gibco-BRL) from CAL-51 cells treated with 2-MeOEMATE or 2-EtEMATE for 0, 8, 16, 24 and 48 hrs. […] The gel was dried and analysed by phosphoimaging on the Personal Molecular Imager Fx (Biorad). Protected fragment bands corresponding to DR5 and GAPDH were quantified and expressed as a ratio of DR5/GAPDH to normalise results."}, "[3]": {"test_system": "DR5 protein", "assay": "Western blot of DR5 protein levels in Cal51 cells", "assay_type": "cell-based", "conditions": "48 hours, 0.05, 0.5 and 5 μM", "method": "FIG. 6. […] Western blot showing DR5 protein levels following treatment of Cal51 cells for 48 hours with 0, 0.05, 0.5 and 5 μM of 2-MeOEMATE or 2-EtEMATE. PCNA levels represent corresponding loading controls.\nProtein lysates were prepared from CAL51 cells treated with various compounds and analysed for expression of DR5 by immunoblotting (FIG. 6)."}, "[4]": {"test_system": "caspase 3", "assay": "Western blot of caspase 3 activation in Cal51 cells", "assay_type": "cell-based", "conditions": "Cal51 cells, 48 hours; for activation of caspase 3 compared to compound alone: 5 μM compound in combination with 250 ng/ml TRAIL; for activation of caspase 3 (reduction of unprocessed caspase 3): treatment alone, 5 μM compound or 250 ng/ml TRAIL", "method": "FIG. 3. Effect of 2-MeOE2bisMATE on caspase 8 and caspase 3 activation and PARP cleavage in Cal51 cells. Western blots showing caspase 8 and caspase 3 unprocessed and active fragments and PARP uncleaved and cleaved products following treatment of Cal51 cells with solvent, 0.05, 0.5 or 5 μM 2-MeOE2bisMATE for 48 hours.\nFIG. 5. Effect of 2-MeOE2bisMATE on the timing of caspase 3 and caspase 8 activation and PARP cleavage in Cal51 cells. Western blots showing caspase 3, caspase 8 and PARP unprocessed and cleaved products at 0, 8, 16, 24 and 48 hrs following treatment of Cal51 cells with 5 μM 2-MeOE2bisMATE for 48 hrs or untreated for 48 hrs (48NT).\nFIG. 7. Effect of combined treatment of 2-EtEMATE or 2-MeOEMATE and TRAIL on caspase 3 activation in Cal51 cells. Western blots showing caspase 3 activation following treatment of Cal51 cells for 48 hours with solvent, 250 ng/ml TRAIL and 5 μM 2-EtEMATE or 2-MeOEMATE in the presence or absence of 250 ng/ml TRAIL. PCNA levels represent corresponding loading controls. 1, control; 2, THF solvent; 3, TRAIL; 4, 2-EtEMATE; 5,2-EtEMATE+TRAIL; 6, control; 7, THF solvent; 8, TRAIL; 9, 2-MeOEMATE; 10, 2-MeOEMATE+TRAIL\nTo determine whether caspases might play a role in cell death induced by 2-MeOE2bisMATE and other sulfamoylated oestrogen derivatives, we examined the expression of caspase 3, caspase 8 and PARP by immunoblotting (FIG. 3). […] Therefore, cell death induced by the 2-MeOE2bisMATE in Cal51 cells is associated with caspase activation.\nThere are two major pathways of apoptosis; cell surface death receptors activate caspases directly via activation of caspase 8 whereas other apoptotic stimuli operate via triggering the release of cytochrome c from mitochondria which subsequently activates caspases. Both pathways ultimately result in activation of caspase 3 and PARP cleavage. Since activation of caspase 8 is an indicator for the direct involvement of death receptors, it is important to determine whether activation of caspase 8 by 2-MeOE2bisMATE precedes or follows caspase 3 activation. We therefore performed time course experiments in Cal51 cells treated with 2-MeOE2bisMATE to order the activation events. Caspase 3 activation was first detected at 16 hours and as expected was followed by PARP cleavage at 24 hours (FIG. 5). Caspase 8 activation was a relatively late event, first detected at 48 hours. Therefore activation of caspase 3 induced by 2-MeOE2bisMATE precedes activation of caspase 8.\nTo further explore the mechanism for co-operation between sulfamoylated oestrones and TRAIL, we analysed activation of caspase 3 (FIG. 7). […] Therefore, sulfamoylated oestrones and TRAIL cooperate to activate caspase 3."}, "[5]": {"test_system": "DR5 mRNA", "assay": "RNAse protection assay, DR5 mRNA levels in Cal51 cells", "assay_type": "cell-based, Human", "conditions": "0.5 μM, between 24 and 48 hours", "method": "as §4, §5, §6, §7"}, "[6]": {"test_system": "CAL51 cells", "assay": "Cell Titre 96 Aqueous One Solution cell proliferation assay, CAL51 cells", "assay_type": "cell-based", "conditions": "2 days; for cell death compared to treatment with compound alone: in combination with TRAIL (50 or 250 ng/ml)", "method": "as §1, §2, §3"}, "[7]": {"molecular_target": "T1, E1-STS (Homo sapiens, UniProt P08842)", "T1 sequence (P08842 22-583)": "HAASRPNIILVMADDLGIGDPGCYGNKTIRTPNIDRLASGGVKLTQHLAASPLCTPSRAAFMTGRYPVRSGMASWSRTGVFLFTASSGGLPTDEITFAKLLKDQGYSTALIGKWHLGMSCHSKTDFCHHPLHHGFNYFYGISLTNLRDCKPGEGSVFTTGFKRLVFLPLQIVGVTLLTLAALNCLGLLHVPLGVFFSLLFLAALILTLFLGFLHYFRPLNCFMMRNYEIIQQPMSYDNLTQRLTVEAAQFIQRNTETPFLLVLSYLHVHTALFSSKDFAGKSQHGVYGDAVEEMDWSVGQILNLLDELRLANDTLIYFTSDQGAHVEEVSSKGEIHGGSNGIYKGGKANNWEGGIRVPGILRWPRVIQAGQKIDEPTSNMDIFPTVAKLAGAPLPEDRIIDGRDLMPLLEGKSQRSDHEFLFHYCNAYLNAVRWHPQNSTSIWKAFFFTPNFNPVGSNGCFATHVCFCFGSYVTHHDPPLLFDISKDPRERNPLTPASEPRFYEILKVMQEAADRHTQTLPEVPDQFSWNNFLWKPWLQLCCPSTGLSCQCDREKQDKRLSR", "conditions": "cited from earlier work"}, "[8]": {"molecular_target": "T1, E1-STS", "parameters": "E1-STS activity in intact MCF-7 cells; endogenous in cells; host or cells: MCF-7 cells", "conditions": "intact MCF-7 cells, 0.1 μM; cited from earlier work"}, "[9]": {"conditions": "5 μM compound in combination with 250 ng/ml TRAIL"}, "[10]": {"conditions": "treatment alone, 5 μM compound or 250 ng/ml TRAIL"}},
  "data": [
    {"molecule": "CCc1cc2c(cc1OS(N)(=O)=O)CCC1C2CCC2(C)C(=O)CCC12", "note": "(stereo not drawn) [2-EtEMATE, 2-ethyloestrone-3-O-sulphamate]", "values": [
      {"measurement": "cell death", "setting": "[1]; [9]", "value": 36, "unit": "%"},
      {"measurement": "cell death", "setting": "[1]; [10]", "value": 16, "unit": "%"},
      {"measurement": "DR4 mRNA levels", "setting": "[2]", "value": "did not change significantly"},
      {"measurement": "DR5 protein levels by western blot", "setting": "[3]", "value": "did not detect a significant increase"},
      {"measurement": "activation of caspase 3 compared to compound alone", "setting": "[4]", "value": "further enhanced"},
      {"measurement": "activation of caspase 3 (reduction of unprocessed caspase 3)", "setting": "[4]", "value": "induced activation of caspase 3"},
      {"measurement": "DR5 mRNA levels (DR5/GAPDH) compared to untreated control", "setting": "[5]", "value": "significantly increased"},
      {"measurement": "cell death compared to treatment with compound alone", "setting": "[6]", "value": "enhanced the amount of cell death"}
    ]},
    {"molecule": "COc1cc2c(cc1OS(N)(=O)=O)CCC1C2CCC2(C)C(=O)CCC12", "note": "(stereo not drawn) [2-MeOEMATE, 2-methoxyoestrone-3-O-sulphamate]", "values": [
      {"measurement": "cell death", "setting": "[1]; [9]", "value": 35, "unit": "%"},
      {"measurement": "cell death", "setting": "[1]; [10]", "value": 13, "unit": "%"},
      {"measurement": "DR4 mRNA levels", "setting": "[2]", "value": "did not change significantly"},
      {"measurement": "DR5 protein levels by western blot", "setting": "[3]", "value": "did not detect a significant increase"},
      {"measurement": "activation of caspase 3 compared to compound alone", "setting": "[4]", "value": "further enhanced"},
      {"measurement": "activation of caspase 3 (reduction of unprocessed caspase 3)", "setting": "[4]", "value": "induced activation of caspase 3"},
      {"measurement": "DR5 mRNA levels (DR5/GAPDH) compared to untreated control", "setting": "[5]", "value": "significantly increased"},
      {"measurement": "cell death compared to treatment with compound alone", "setting": "[6]", "value": "enhanced the amount of cell death"}
    ]},
    {"molecule": "CC12CCC3c4ccc(OS(N)(=O)=O)cc4CCC3C1CCC2=O", "note": "(stereo not drawn) [EMATE, oestrone-3-sulphamate]", "values": [
      {"measurement": "inhibition of the E1-STS enzyme", "setting": "[7]", "value": "time- and concentration-dependent manner"},
      {"measurement": "inhibition of E1-STS activity", "setting": "[8]", "value": "more than 99%"}
    ]},
    {"molecule": "B1", "values": [
      {"measurement": "cell death", "setting": "[1]; [10]", "value": 12, "unit": "%"},
      {"measurement": "activation of caspase 3 (reduction of unprocessed caspase 3)", "setting": "[4]", "value": "no detectable caspase 3 activation"},
      {"measurement": "TRAIL induced cell death", "setting": "[6]; TRAIL alone (50 or 250 ng/ml)", "value": "resistant to TRAIL induced cell death"}
    ]}
  ]
}
